In patent US20100210464A1, “HERBICIDAL COMPOSITION AND METHOD OF USE THEREOF” (SYNGENTA CROP PROTECTION, INC., priority 2007, published 2010):
Marks after values point to notes of the source that are not given here.

Experiments:
Type in all cases: in vivo
[1] = tested on: white clover (Trifolium repens); assay: Glasshouse trial, control of white clover, granules applied post-emergence (Example 4); conditions: pendimethalin granules 1120 g ai/ha + mesotrione granules 200 g ai/ha
Method: (§1) 200 litres of herbicide/adjuvant system was used per hectare. General weed control was evaluated at 7 and 14 days after treatment (DAT). It is noted that all herbicides were applied at reduced field rates because herbicide effects are magnified in a glasshouse environment. Rates were chosen to give a 50 to 70% level of control with herbicides applied alone as this allows for detection of any synergistic effect when tank mixtures are used. The results were evaluated using the Colby formula. The expected result for (A+B) is (A+B)−(A×B/100) where A and B are the ‘observed’ results for A and B on their own. […] A glasshouse trial was carried out as described in Example 1, except that the herbicides were applied in the form of granules. Mesotrione granules were made by spraying a mesotrione millbase (28% SC formulation) onto a granular carrier, Agsorb LVM-GA 24/48. Pendimethalin granules were made by adding Prowl® 3.3EC (37.4%) and Agsorb LVM-GA 24/48 granules into a tumbler, followed by spraying with a binder, HiSil 233. For testing mixtures of mesotrione and pendimethalin, the appropriate number of granules for each herbicide were weighed and thoroughly mixed. Granules were weighed for each individual pot using an amount equivalent to the rates listed in Table 2, and, based on a pot surface area of 10 cm^2, were carefully hand sprinkled on the emerged plants and pot surface. […]

[2] = tested on: goosegrass (Eleusine indica); assay: Glasshouse trial, control of goosegrass, granules applied pre-emergence (Example 2)
Method: as §1, with “A glasshouse trial was carried out. Goosegrass seeds were sown into standard glasshouse potting mix (1:1 v/v Promix:Vero sand soil) contained in 10 cm square plastic pots. Treatments were replicated three times. Mesotrione (in the form Callisto® 480SE) was applied pre-emergence to goosegrass (Eleusine indica) at 100 g ai/ha with or without pendimethalin (in the form Prowl® H2O). When used, pendimethalin was applied at a rate of 140 g ai/ha or 280 g ai/ha. The adjuvant system was X-77 at 0.1% v/v in deionised water. 200” for “200”, “mixed.” for “mixed. Granules were weighed for each individual pot using an amount equivalent to the rates listed in Table 2, and, based on a pot surface area of 10 cm^2, were carefully hand sprinkled on the emerged plants and pot surface.”

[3] = tested on: goosegrass (Eleusine indica); assay: Glasshouse trial, control of goosegrass, spray applied pre-emergence (Example 1); conditions: for Actual weed control, Plus Mesotrione at 100 g ai/ha: X-77 0.1% v/v
Method: In the following tests, herbicides were applied at reduced field rates because herbicide effects are magnified in a glasshouse environment. The rates tested were selected to give between about 50 and 70% control with herbicides applied alone, so that any synergistic effect could be readily detected when testing mixtures. A glasshouse trial was carried out. Goosegrass seeds were sown into standard glasshouse potting mix (1:1 v/v Promix:Vero sand soil) contained in 10 cm square plastic pots. Treatments were replicated three times. Mesotrione (in the form Callisto® 480SE) was applied pre-emergence to goosegrass (Eleusine indica) at 100 g ai/ha with or without pendimethalin (in the form Prowl® H2O). When used, pendimethalin was applied at a rate of 140 g ai/ha or 280 g ai/ha. The adjuvant system was X-77 at 0.1% v/v in deionised water. 200 litres of herbicide/adjuvant system was used per hectare. General weed control was evaluated at 7 and 14 days after treatment (DAT). It is noted that all herbicides were applied at reduced field rates because herbicide effects are magnified in a glasshouse environment. Rates were chosen to give a 50 to 70% level of control with herbicides applied alone as this allows for detection of any synergistic effect when tank mixtures are used. The results were evaluated using the Colby formula. The expected result for (A+B) is (A+B)−(A×B/100) where A and B are the ‘observed’ results for A and B on their own.

[4] = pendimethalin granules 140 g ai/ha + mesotrione granules 100 g ai/ha
[5] = pendimethalin granules 140 g ai/ha + mesotrione granules 200 g ai/ha
[6] = pendimethalin granules 280 g ai/ha + mesotrione granules 100 g ai/ha
[7] = pendimethalin granules 280 g ai/ha + mesotrione granules 200 g ai/ha

CCC(CC)Nc1c([N+](=O)[O-])cc(C)c(C)c1[N+](=O)[O-] [Pendimethalin, N-(1-ethylpropyl)-3,4-dimethyl-2,6-dinitrobenzenamine]
Actual weed control, Plus Mesotrione at 200 g ai/ha [1]: 93* % | Expected weed control (Colby formula), Plus Mesotrione at 200 g ai/ha [1]: 76% | Actual weed control, Plus Mesotrione at 100 g ai/ha [2, 4]: 67* % | Expected weed control (Colby formula), Plus Mesotrione at 100 g ai/ha [2, 4]: 48% | Actual weed control, Plus Mesotrione at 200 g ai/ha [2, 5]: 95* % | Expected weed control (Colby formula), Plus Mesotrione at 200 g ai/ha [2, 5]: 80% | Actual weed control, Plus Mesotrione at 100 g ai/ha [2, 6]: 87* % | Expected weed control (Colby formula), Plus Mesotrione at 100 g ai/ha [2, 6]: 49% | Actual weed control, Plus Mesotrione at 200 g ai/ha [2, 7]: 100* % | Expected weed control (Colby formula), Plus Mesotrione at 200 g ai/ha [2, 7]: 80% | Expected weed control (Colby formula), Plus Mesotrione at 100 g ai/ha ([3]; pendimethalin 140 g ai/ha + mesotrione 100 g ai/ha): 22% | Expected weed control (Colby formula), Plus Mesotrione at 100 g ai/ha ([3]; pendimethalin 280 g ai/ha + mesotrione 100 g ai/ha): 22% | Actual weed control, Plus Mesotrione at 100 g ai/ha ([3]; pendimethalin (Prowl H2O) 140 g ai/ha + mesotrione (Callisto 480SE) 100 g ai/ha): 35* % | Actual weed control, Plus Mesotrione at 100 g ai/ha ([3]; pendimethalin (Prowl H2O) 280 g ai/ha + mesotrione (Callisto 480SE) 100 g ai/ha): 37* %
